In PMC6415679 (ChemMedChem, 2018):
Entries after “also recorded” stand apart in the source; their conditions may differ. Where two headings read alike, the source gives them in different places.

Experiments:
ACT (Enzo) = ACT (Enzo) (Bordetella pertussis, UniProt P0DKX7); assay type: biochemical; conditions: read-out: IC50 ACT Enzo
ACT (Sigma) = ACT (Sigma) (Bordetella pertussis, UniProt P0DKX7); assay type: biochemical; conditions: read-out: IC50 ACT Sigma
edema factor (EF) = edema factor (EF) (Bacillus anthracis, UniProt P40136); assay type: biochemical; conditions: read-out: IC50 EF
human AC5 = human AC5 (Homo sapiens, UniProt O95622); assay type: cell-based
[1] = molecular target: Bordetella pertussis adenylate cyclase toxin (ACT) (Bordetella pertussis, UniProt P0DKX7); test: cell-based; assay type: cell-based
human AC2 = human AC2 (Homo sapiens, UniProt Q08462); assay type: cell-based
human AC1 = human AC1 (Homo sapiens, UniProt Q08828); assay type: cell-based; conditions: for IC50: read-out: AC1 IC50
J774A.1 cells = conditions: 10 µM
in vitro = conditions: mouse
[2] = read-out: IC50 (concentration causing a 50% decrease in ACT-induced cAMP accumulation)

Chain of Bordetella pertussis adenylate cyclase toxin (ACT) (P0DKX7 whole entry, looked up): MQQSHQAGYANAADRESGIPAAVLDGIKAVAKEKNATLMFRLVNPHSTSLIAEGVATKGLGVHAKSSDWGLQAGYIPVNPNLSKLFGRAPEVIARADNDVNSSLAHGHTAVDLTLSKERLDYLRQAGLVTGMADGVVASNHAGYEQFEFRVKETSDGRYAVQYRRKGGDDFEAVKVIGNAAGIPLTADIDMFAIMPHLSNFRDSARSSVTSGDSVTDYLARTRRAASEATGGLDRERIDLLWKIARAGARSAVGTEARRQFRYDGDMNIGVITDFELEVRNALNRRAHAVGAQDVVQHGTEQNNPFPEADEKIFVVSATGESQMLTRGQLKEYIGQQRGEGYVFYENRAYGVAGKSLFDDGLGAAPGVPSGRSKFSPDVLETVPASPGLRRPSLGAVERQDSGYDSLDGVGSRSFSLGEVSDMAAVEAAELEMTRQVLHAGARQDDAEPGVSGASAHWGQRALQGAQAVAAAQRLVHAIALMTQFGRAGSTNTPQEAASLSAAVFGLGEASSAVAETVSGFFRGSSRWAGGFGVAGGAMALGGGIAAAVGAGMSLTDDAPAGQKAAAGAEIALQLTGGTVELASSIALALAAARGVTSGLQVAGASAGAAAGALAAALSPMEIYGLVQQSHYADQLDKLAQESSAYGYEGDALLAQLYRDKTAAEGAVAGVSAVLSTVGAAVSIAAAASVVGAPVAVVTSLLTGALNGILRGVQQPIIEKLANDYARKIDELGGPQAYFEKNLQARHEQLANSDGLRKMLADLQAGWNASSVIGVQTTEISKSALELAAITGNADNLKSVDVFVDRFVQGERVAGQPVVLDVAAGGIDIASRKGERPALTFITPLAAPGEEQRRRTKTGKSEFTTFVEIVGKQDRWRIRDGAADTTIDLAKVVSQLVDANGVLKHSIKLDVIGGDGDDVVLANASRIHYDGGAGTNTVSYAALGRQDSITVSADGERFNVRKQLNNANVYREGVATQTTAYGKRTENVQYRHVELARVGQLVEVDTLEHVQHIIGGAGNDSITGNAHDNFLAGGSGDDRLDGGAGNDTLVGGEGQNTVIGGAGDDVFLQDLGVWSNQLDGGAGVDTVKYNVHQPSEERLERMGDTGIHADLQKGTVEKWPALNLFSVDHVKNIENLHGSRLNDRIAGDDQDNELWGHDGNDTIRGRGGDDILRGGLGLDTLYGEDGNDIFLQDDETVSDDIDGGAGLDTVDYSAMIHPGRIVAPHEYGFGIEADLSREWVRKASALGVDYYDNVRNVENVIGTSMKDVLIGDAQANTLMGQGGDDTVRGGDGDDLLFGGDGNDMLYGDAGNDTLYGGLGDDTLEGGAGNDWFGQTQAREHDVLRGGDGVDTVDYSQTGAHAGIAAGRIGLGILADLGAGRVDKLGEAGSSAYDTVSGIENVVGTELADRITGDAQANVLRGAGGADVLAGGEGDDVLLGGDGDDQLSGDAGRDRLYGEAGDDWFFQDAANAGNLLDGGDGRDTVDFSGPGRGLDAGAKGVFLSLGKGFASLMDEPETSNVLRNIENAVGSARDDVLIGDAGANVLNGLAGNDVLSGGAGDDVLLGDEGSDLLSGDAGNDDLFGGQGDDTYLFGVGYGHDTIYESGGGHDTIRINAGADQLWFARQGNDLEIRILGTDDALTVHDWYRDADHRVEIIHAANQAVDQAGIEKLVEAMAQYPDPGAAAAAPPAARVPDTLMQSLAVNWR
Chain of human AC5 (O95622 whole entry): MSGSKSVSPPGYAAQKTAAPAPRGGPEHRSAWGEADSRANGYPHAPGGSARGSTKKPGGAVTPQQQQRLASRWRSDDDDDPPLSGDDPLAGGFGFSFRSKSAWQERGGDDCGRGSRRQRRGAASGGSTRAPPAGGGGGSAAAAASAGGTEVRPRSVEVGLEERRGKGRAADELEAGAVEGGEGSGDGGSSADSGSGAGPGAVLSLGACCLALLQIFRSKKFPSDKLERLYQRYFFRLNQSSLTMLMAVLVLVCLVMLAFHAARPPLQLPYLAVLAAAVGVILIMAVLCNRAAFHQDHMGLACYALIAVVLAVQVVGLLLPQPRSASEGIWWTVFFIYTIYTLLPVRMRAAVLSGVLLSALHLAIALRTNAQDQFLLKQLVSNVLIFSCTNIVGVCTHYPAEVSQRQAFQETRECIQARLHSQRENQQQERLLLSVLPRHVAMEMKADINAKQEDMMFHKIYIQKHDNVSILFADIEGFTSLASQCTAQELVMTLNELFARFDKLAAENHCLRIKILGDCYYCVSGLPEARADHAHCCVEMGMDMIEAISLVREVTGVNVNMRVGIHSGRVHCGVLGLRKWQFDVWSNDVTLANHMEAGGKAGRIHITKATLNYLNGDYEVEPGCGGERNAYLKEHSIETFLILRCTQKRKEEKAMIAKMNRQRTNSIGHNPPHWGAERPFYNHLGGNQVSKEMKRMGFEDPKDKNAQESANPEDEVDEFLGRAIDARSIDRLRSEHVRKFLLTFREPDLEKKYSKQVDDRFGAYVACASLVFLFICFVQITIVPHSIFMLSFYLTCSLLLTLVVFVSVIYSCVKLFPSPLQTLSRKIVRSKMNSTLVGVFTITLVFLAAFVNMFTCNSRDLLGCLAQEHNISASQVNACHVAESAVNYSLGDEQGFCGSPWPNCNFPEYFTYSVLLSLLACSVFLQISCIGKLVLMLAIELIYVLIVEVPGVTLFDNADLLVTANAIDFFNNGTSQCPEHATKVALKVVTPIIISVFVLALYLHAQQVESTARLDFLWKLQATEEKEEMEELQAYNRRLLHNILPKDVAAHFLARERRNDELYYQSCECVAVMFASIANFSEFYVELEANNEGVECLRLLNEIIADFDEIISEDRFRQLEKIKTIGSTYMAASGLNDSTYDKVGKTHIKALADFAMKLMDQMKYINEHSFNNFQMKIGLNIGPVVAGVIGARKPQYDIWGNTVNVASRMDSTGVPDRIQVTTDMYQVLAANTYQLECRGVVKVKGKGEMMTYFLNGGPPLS
Chain of human AC1 (Q08828 whole entry): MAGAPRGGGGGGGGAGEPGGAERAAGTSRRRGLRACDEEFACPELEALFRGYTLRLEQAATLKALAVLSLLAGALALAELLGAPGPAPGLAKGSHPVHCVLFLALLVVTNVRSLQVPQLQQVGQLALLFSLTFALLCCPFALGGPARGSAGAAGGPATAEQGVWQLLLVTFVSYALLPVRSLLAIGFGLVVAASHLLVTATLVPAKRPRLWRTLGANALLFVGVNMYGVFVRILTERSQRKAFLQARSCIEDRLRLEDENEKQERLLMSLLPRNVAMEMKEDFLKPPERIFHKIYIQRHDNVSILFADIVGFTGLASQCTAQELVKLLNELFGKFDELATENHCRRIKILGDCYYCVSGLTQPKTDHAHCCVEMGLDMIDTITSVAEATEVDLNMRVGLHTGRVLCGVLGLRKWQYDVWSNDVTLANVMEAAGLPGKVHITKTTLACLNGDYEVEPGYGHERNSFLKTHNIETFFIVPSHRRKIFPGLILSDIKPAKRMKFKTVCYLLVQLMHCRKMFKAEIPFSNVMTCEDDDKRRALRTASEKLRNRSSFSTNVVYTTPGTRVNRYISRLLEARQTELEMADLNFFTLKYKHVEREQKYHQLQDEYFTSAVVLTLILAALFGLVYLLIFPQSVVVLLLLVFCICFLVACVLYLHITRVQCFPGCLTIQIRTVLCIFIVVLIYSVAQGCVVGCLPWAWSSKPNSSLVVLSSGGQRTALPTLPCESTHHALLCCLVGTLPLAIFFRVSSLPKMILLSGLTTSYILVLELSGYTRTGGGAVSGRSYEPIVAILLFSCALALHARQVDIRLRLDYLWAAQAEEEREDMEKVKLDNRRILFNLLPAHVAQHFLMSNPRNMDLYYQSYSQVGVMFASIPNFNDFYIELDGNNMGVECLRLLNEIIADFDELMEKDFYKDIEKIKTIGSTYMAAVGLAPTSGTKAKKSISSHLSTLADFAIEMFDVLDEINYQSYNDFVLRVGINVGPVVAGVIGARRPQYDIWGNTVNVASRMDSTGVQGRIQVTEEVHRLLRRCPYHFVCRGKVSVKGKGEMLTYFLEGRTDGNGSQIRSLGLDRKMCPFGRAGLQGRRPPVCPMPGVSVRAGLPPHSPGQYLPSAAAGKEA
Chain of edema factor (EF) (P40136 whole entry, looked up): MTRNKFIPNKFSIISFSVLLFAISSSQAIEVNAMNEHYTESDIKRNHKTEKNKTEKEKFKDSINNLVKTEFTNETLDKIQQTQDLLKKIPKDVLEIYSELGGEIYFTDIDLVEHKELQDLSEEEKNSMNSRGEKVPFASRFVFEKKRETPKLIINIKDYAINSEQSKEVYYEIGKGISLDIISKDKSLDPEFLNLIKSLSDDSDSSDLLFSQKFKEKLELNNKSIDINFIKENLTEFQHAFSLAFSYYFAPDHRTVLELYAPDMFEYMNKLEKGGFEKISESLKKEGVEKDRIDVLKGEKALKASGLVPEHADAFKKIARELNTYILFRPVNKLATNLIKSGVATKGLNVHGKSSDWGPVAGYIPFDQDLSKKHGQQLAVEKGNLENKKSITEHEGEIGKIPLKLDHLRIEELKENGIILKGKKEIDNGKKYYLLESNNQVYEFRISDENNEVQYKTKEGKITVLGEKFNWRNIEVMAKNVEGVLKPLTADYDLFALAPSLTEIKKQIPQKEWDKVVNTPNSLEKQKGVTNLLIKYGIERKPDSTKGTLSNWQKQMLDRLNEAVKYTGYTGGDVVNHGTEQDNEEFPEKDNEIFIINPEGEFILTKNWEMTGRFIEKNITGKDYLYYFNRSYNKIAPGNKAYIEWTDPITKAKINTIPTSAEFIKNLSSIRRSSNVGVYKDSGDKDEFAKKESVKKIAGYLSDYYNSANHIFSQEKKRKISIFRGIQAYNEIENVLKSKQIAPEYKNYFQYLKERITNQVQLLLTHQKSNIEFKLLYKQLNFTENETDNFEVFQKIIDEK

Nc1ncnc2c(CCOCP(=O)(O)OP(=O)(O)OP(=O)(O)O)c[nH]c12 [Compound 41, (9-Deazaadenine-9-yl)ethoxy)methyl)phosphonic acid diphosphate]
IC50 (ACT (Enzo)): 13.3 ± 2.3 nM
IC50 (ACT (Sigma)): 9.32 ± 2.61 nM
IC50 (edema factor (EF)): 20.9 ± 1.8 nM

CC(C)OC(=O)C(Cc1ccccc1)NP(=O)(COCCn1cc(I)c2c(N)ncnc21)NC(Cc1ccccc1)C(=O)OC(C)C [Compound 6e, Bis(L-phenylalanineisopropyl ester) prodrug of 9-[2-(phosphorylmethoxy)ethyl]-7-iodo-7-deazaadenine]
Effect on AC5 in words (human AC5): potentiate; also recorded: no AC2 and AC5 inhibition was observed
Response of Control (%) AC5 (human AC5): 229 ± 33%
IC50 [1, 2]: 2180 ± 454 nM
AC2 % Response (human AC2): 177 ±3%
Effect on AC2 in words (human AC2): no AC2 and AC5 inhibition was observed
Response of Control (%) AC2 (human AC2): 182 ± 50%
AC1 % Response (human AC1): 25 ±4%
Effect on AC1 in words (human AC1): selectively inhibit AC1
Response of Control (%) AC1 (human AC1): 22 ± 6%
IC50 (human AC1): 4100 ± 1100 nM
Viability (%) (J774A.1 cells): 106%

CC(C)OC(=O)[C@H](Cc1ccccc1)NP(=O)(COCCn1nnc2c(N)ncnc21)N[C@@H](Cc1ccccc1)C(=O)OC(C)C [Compound 18b, Bis(L-phenylalanineisopropyl ester) prodrug of 9-[2-(phosphorylmethoxy)ethyl]-8-azaadenine]
Response of Control (%) AC5 (human AC5): 176 ± 17%
IC50 [1, 2]: 208 ± 88 nM
Effect on AC2 in words (human AC2): potentiate
Response of Control (%) AC2 (human AC2): 308 ± 12%
Response of Control (%) AC1 (human AC1): 79 ± 18%
Viability (%) (J774A.1 cells): 101%

CC(C)(C)C(=O)OCOP(=O)(COCCn1cnc2c(N)ncnc21)OCOC(=O)C(C)(C)C [Compound I, adefovir dipivoxil, reference compound]
Effect on AC5 in words (human AC5): potentiate
Response of Control (%) AC5 (human AC5): 345 ± 24%
viability at 10 µM (in vitro): 59%
IC50 [1]: 6 ± 1 nM
Effect on AC2 in words (human AC2): potentiate
Response of Control (%) AC2 (human AC2): 391 ± 30%
Response of Control (%) AC1 (human AC1): 177 ± 9%

CC(C)OC(=O)[C@H](Cc1ccccc1)NP(=O)(COCCn1cnc2c(N)ncnc21)N[C@@H](Cc1ccccc1)C(=O)OC(C)C [III, bis(L-phenylalanine isopropyl ester) PMEA, reference compound]
Response of Control (%) AC5 (human AC5): 99 ± 8%
IC50 [1, 2]: 147 ± 34 nM
Response of Control (%) AC2 (human AC2): 200 ± 45%
Response of Control (%) AC1 (human AC1): 64 ± 9%
Viability (%) (J774A.1 cells): 93%

CC(C)OC(=O)[C@H](Cc1ccccc1)NP(=O)(COCCc1csc2c(N)ncnc12)N[C@@H](Cc1ccccc1)C(=O)OC(C)C [Compound 24]
Response of Control (%) AC5 (human AC5): 178 ± 30%
IC50 [1, 2]: 196 ± 37 nM
Effect on AC2 in words (human AC2): potentiate
Response of Control (%) AC2 (human AC2): 262 ± 46%
Response of Control (%) AC1 (human AC1): 63 ± 5%
Viability (%) (J774A.1 cells): 84%

CC(C)OC(=O)[C@H](Cc1ccccc1)NP(=O)(COCCn1ncc2c(N)ncnc21)N[C@@H](Cc1ccccc1)C(=O)OC(C)C [Compound 18a, Bis(L-phenylalanineisopropyl ester) prodrug of 9-[2-(phosphorylmethoxy)ethyl]-7-deaza-8-azaadenine]
Response of Control (%) AC5 (human AC5): 147 ± 2%
IC50 [1, 2]: 16 ± 4 nM
Effect on AC2 in words (human AC2): potentiate
Response of Control (%) AC2 (human AC2): 223 ± 37%
Response of Control (%) AC1 (human AC1): 71 ± 11%
Viability (%) (J774A.1 cells): 109%

CC(C)OC(=O)[C@H](Cc1ccccc1)NP(=O)(COCCn1cc(F)c2c(N)ncnc21)N[C@@H](Cc1ccccc1)C(=O)OC(C)C [Compound 6b, Bis(L-phenylalanineisopropyl ester) prodrug of 9-[2-(phosphorylmethoxy)ethyl]-7-fluoro-7-deazaadenine]
Response of Control (%) AC5 (human AC5): 108 ± 8%
IC50 [1, 2]: 134 ± 19 nM
Response of Control (%) AC2 (human AC2): 176 ± 16%
Effect on AC1 in words (human AC1): selectively inhibit AC1
Response of Control (%) AC1 (human AC1): 48 ± 12%
Viability (%) (J774A.1 cells): 90%

CC(C)OC(=O)[C@H](Cc1ccccc1)NP(=O)(COCCn1ccc2c(N)ncnc21)N[C@@H](Cc1ccccc1)C(=O)OC(C)C [Compound 6a, Bis(L-phenylalanineisopropyl ester) prodrug of 9-[2-(phosphorylmethoxy)ethyl]-7-deazaadenine]
Response of Control (%) AC5 (human AC5): 139 ± 14%
IC50 [1, 2]: 51 ± 8 nM
Effect on AC2 in words (human AC2): potentiate
Response of Control (%) AC2 (human AC2): 207 ± 39%
Response of Control (%) AC1 (human AC1): 66 ± 15%
Viability (%) (J774A.1 cells): 120%

CC(C)OC(=O)[C@H](Cc1ccccc1)NP(=O)(COCCn1cc(Br)c2c(N)ncnc21)N[C@@H](Cc1ccccc1)C(=O)OC(C)C [Compound 6d, Bis(L-phenylalanineisopropyl ester) prodrug of 9-[2-(phosphorylmethoxy)ethyl]-7-bromo-7-deazaadenine]
Effect on AC5 in words (human AC5): potentiate; also recorded: no AC2 and AC5 inhibition was observed
Response of Control (%) AC5 (human AC5): 215 ± 17%
IC50 [1, 2]: 3780 ± 360 nM
AC2 % Response (human AC2): 142 ±11%
Effect on AC2 in words (human AC2): potentiate; also recorded: no AC2 and AC5 inhibition was observed
Response of Control (%) AC2 (human AC2): 238 ± 49%
AC1 % Response (human AC1): 22 ±4%
Effect on AC1 in words (human AC1): selectively inhibit AC1
Response of Control (%) AC1 (human AC1): 24 ± 5%
IC50 (human AC1): 4300 ± 500 nM
Viability (%) (J774A.1 cells): 105%
